Assay: Release of Paclitaxel from silicone elastomer coatings into calf serum
Format: physicochemical
Settings: for steady state release rate of Paclitaxel: calf serum, 37° C.
Description: All samples were dip-coated pieces of 316 L stainless steel, measuring 1 cm×1 cm with 26 gauge thickness. The stainless steel pieces were first cleaned by sonicating in 3% Isopanasol, deionised (DI) water, and acetone, each for 6 minutes, then dipped into the silicone composite solutions of the invention. Silicone elastomer solutions were made with DAP® 100% silicone rubber adhesive (from DAP, Inc., Maryland) co-dissolved with either Paclitaxel or Tranilast and 20% (w/w) of polyethylene glycol, MW 3400 (PEG) in methylene chloride. Upon setting, the silicone elastomer solutions formed a film on the steel pieces having a certain thickness. Paclitaxel was loaded at 2% of silicone weight. Tranilast was loaded at 5% of silicone weight. […] All samples were placed in glass culture tubes with 2 mL of either PBS, pH 7.4 or calf serum. The culture tubes were then placed in a shaking water bath at 37° C. and 120 rpm. At each time interval, all of the release media was removed and replaced by fresh solution. Paclitaxel samples were assayed using a competitive inhibition enzyme immunoassay (CIEIA) kit from Hawaii Biotech, Aiea, Hi. Tranilast samples were assayed using UV spectrophotometry at a wavelength of 340 nm.

CC(=O)O[C@H]1C(=O)[C@@]2(C)[C@H]([C@H](OC(=O)c3ccccc3)[C@]3(O)C[C@H](OC(=O)[C@H](O)[C@@H](NC(=O)c4ccccc4)c4ccccc4)C(C)=C1C3(C)C)[C@]1(OC(C)=O)CO[C@@H]1C[C@@H]2O [Paclitaxel]
duration of almost zero-order release after the initial burst (both films, with and without PEG): 60 days | steady state release rate of Paclitaxel (films with 20% weight PEG MW 3400): 0.38 ± 0.03 µg/day | initial burst of Paclitaxel (films without PEG compared with films with 20% PEG): higher initial burst | steady state release rate of Paclitaxel (films without PEG): 0.21 ± 0.03 µg/day | duration of continued but decreased release (silicone elastomer coatings): ≤ 140 days

Source: patent US20060204537A1, “Silicone blends and composites for drug delivery” (Genzyme Corporation, priority 2002, published 2006)
